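Briefly, cells in 96-well plates were exposed to five compound concentrations for 48 h, and endpoints were estimated by linear interpolation. GI50 marks 50% less growth.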 Calls of active or inactive are those of the source. Rule as the data show it: active = GI50 up to about 1.1 µM and inactive = higher.
What was measured:
Experiment in all cases: inhibition of tumour cell growth, NCI panel, 48 h
A549 = system: A549
COLO 205 = system: COLO 205
DU-145 = system: DU-145
HCT-116 = system: HCT-116
HL-60 = system: HL-60
HOP-62 = system: HOP-62
HOP-92 = system: HOP-92
IGROV-1 = system: IGROV-1
M14 = system: M14
MOLT-4 = system: MOLT-4
OVCAR-5 = system: OVCAR-5
OVCAR-8 = system: OVCAR-8
RPMI-8226 = system: RPMI-8226
SF-268 = system: SF-268
SK-MEL-28 = system: SK-MEL-28
SK-MEL-5 = system: SK-MEL-5
TK-10 = system: TK-10
UACC-257 = system: UACC-257
UACC-62 = system: UACC-62
T47D = system: T47D

Measured: GI50

Cn1c(=O)cc(N2CCCC2)[nH]c1=O
inactive: A549 > 100 µM | COLO 205 > 100 µM | DU-145 > 100 µM | HCT-116 > 100 µM | HL-60 > 100 µM | HOP-62 > 100 µM | HOP-92 > 100 µM | IGROV-1 > 100 µM | M14 > 100 µM | MOLT-4 > 100 µM | OVCAR-5 > 100 µM | OVCAR-8 > 100 µM | RPMI-8226 > 100 µM | SF-268 74.1 µM | SK-MEL-28 > 100 µM | SK-MEL-5 > 100 µM | TK-10 > 100 µM | UACC-257 > 100 µM

C=C[C@@]12CCCCC1C/C(=C(/O)OC)C(=O)C2 (stereo partly specified)
inactive: A549 > 100 µM | COLO 205 > 100 µM | HCT-116 > 100 µM | HL-60 > 100 µM | HOP-62 > 100 µM | HOP-92 > 100 µM | IGROV-1 > 100 µM | M14 > 100 µM | MOLT-4 > 100 µM | OVCAR-5 > 100 µM | OVCAR-8 > 100 µM | RPMI-8226 > 100 µM | SF-268 > 100 µM | SK-MEL-28 > 100 µM | SK-MEL-5 > 100 µM | TK-10 > 100 µM | UACC-257 > 100 µM | UACC-62 > 100 µM

O=c1[nH]nc(Nc2ccc(Cl)cc2)c2nnn(-c3ccc([N+](=O)[O-])cc3)c12
inactive: A549 14.5 µM | COLO 205 13.3 µM | DU-145 12.1 µM | HCT-116 13.9 µM | HL-60 98.6 µM | HOP-62 27.4 µM | HOP-92 14.5 µM | IGROV-1 31.6 µM | M14 49.4 µM | MOLT-4 8.63 µM | OVCAR-5 > 100 µM | OVCAR-8 16.2 µM | RPMI-8226 10.7 µM | SF-268 24.3 µM | SK-MEL-5 10.8 µM | TK-10 24.7 µM | UACC-257 34.8 µM

CCOc1cc2cnc3c4cc(OC)c(OC)cc4ccc3c2cc1OC
inactive: A549 > 100 µM | COLO 205 4.92 µM | HCT-116 > 100 µM | HL-60 40.2 µM | HOP-62 > 100 µM | HOP-92 > 100 µM | IGROV-1 > 100 µM | M14 > 100 µM | MOLT-4 49.8 µM | OVCAR-5 > 100 µM | OVCAR-8 43.4 µM | RPMI-8226 > 100 µM | SF-268 37.3 µM | SK-MEL-28 > 100 µM | SK-MEL-5 > 100 µM | TK-10 > 100 µM | UACC-257 > 100 µM | UACC-62 > 100 µM

O=C(Nc1ccc(Cl)cc1)NS(=O)(=O)c1coc2cc(F)ccc2c1=O
inactive: A549 > 100 µM | COLO 205 > 100 µM | HCT-116 > 10 µM | HOP-62 > 100 µM | IGROV-1 > 100 µM | M14 > 100 µM | MOLT-4 > 100 µM | OVCAR-5 > 100 µM | OVCAR-8 > 100 µM | SF-268 > 100 µM | SK-MEL-28 > 100 µM | SK-MEL-5 > 100 µM | T47D > 100 µM | TK-10 > 100 µM | UACC-257 > 100 µM | UACC-62 26.2 µM

CCOc1ccccc1NC(=O)C(=O)C(/C(=N/N)C(=O)OC)c1nc2ccc([N+](=O)[O-])cc2nc1O (stereo unspecified)
inactive: A549 > 100 µM | HCT-116 > 100 µM | HL-60 > 100 µM | HOP-62 > 100 µM | HOP-92 46 µM | IGROV-1 28.5 µM | M14 > 100 µM | MOLT-4 59.8 µM | OVCAR-5 > 100 µM | OVCAR-8 > 100 µM | RPMI-8226 > 100 µM | SF-268 > 100 µM | SK-MEL-28 > 100 µM | SK-MEL-5 > 100 µM | T47D > 100 µM | TK-10 > 100 µM | UACC-257 > 100 µM | UACC-62 > 100 µM

OCn1nc2c(C3OCCO3)cc3ccccc3n2c1=S
inactive: A549 > 100 µM | COLO 205 > 100 µM | HCT-116 > 100 µM | HL-60 > 100 µM | HOP-62 > 100 µM | HOP-92 > 100 µM | IGROV-1 > 100 µM | M14 > 100 µM | MOLT-4 > 100 µM | OVCAR-5 > 100 µM | OVCAR-8 > 100 µM | RPMI-8226 > 100 µM | SF-268 > 100 µM | SK-MEL-28 > 100 µM | SK-MEL-5 > 100 µM | TK-10 > 100 µM | UACC-257 > 100 µM | UACC-62 > 100 µM

Cc1cccc(C)c1NC(=O)CCc1n[nH]c(=S)o1
inactive: A549 88.5 µM | COLO 205 30.8 µM | HCT-116 20.4 µM | HL-60 > 100 µM | HOP-62 > 100 µM | HOP-92 > 100 µM | IGROV-1 > 100 µM | M14 > 100 µM | MOLT-4 > 100 µM | OVCAR-5 > 100 µM | OVCAR-8 > 100 µM | RPMI-8226 22.2 µM | SF-268 > 100 µM | SK-MEL-28 > 100 µM | SK-MEL-5 > 100 µM | TK-10 > 100 µM | UACC-257 > 100 µM | UACC-62 > 100 µM

CCOC(=O)C1=C(O)C(=O)c2ccsc2C1=O
inactive: A549 > 100 µM | COLO 205 > 100 µM | HCT-116 > 100 µM | HL-60 > 100 µM | HOP-62 > 100 µM | HOP-92 > 100 µM | IGROV-1 > 100 µM | M14 > 100 µM | MOLT-4 > 100 µM | OVCAR-5 > 100 µM | OVCAR-8 > 100 µM | RPMI-8226 > 100 µM | SF-268 > 100 µM | SK-MEL-28 > 100 µM | SK-MEL-5 > 100 µM | TK-10 > 100 µM | UACC-257 > 100 µM | UACC-62 > 100 µM

COc1ccc2[nH]cc(CCNC(C)=O)c2c1 [MELATONIN]
inactive: A549 > 100 µM | COLO 205 29.9 µM | HCT-116 > 100 µM | HL-60 > 100 µM | HOP-62 > 100 µM | HOP-92 > 100 µM | IGROV-1 > 100 µM | M14 > 100 µM | MOLT-4 > 100 µM | OVCAR-5 > 100 µM | OVCAR-8 > 100 µM | RPMI-8226 22.1 µM | SF-268 > 100 µM | SK-MEL-28 > 100 µM | SK-MEL-5 > 100 µM | TK-10 > 100 µM | UACC-257 > 100 µM | UACC-62 > 100 µM

CC(=O)OC1CC2C(C)(C)C(=O)C=C[C@]2(C)C2CCC3(C)C(c4ccoc4)C(=O)C4OC43[C@]12C (stereo partly specified)
inactive: A549 16.7 µM | COLO 205 18.1 µM | HCT-116 13 µM | HL-60 12.4 µM | HOP-62 27.8 µM | HOP-92 15.8 µM | IGROV-1 21 µM | M14 17.3 µM | MOLT-4 13.4 µM | OVCAR-5 29.4 µM | OVCAR-8 20.8 µM | RPMI-8226 2.77 µM | SF-268 21.7 µM | SK-MEL-28 16.9 µM | SK-MEL-5 15.7 µM | TK-10 36.6 µM | UACC-257 15.7 µM | UACC-62 14.2 µM

CCCc1c(O)nc2ccccc2c1O
inactive: A549 > 100 µM | COLO 205 > 100 µM | DU-145 > 100 µM | HCT-116 > 100 µM | HL-60 > 100 µM | HOP-62 > 100 µM | HOP-92 > 100 µM | IGROV-1 > 100 µM | MOLT-4 > 100 µM | OVCAR-5 > 100 µM | OVCAR-8 > 100 µM | RPMI-8226 > 100 µM | SK-MEL-28 > 100 µM | SK-MEL-5 > 100 µM | TK-10 > 100 µM | UACC-257 > 100 µM

CP(C)C.[Ag][I]
inactive: A549 > 100 µM | COLO 205 47.9 µM | HCT-116 58.3 µM | HL-60 > 100 µM | HOP-62 > 100 µM | HOP-92 40.2 µM | IGROV-1 40.4 µM | M14 > 100 µM | MOLT-4 > 100 µM | OVCAR-5 > 100 µM | OVCAR-8 50 µM | RPMI-8226 > 100 µM | SF-268 > 100 µM | SK-MEL-28 61.9 µM | SK-MEL-5 15.4 µM | TK-10 41.5 µM | UACC-257 > 100 µM | UACC-62 > 100 µM

CCC(C)[C@H](NC(=O)N[C@H](C)c1ccccc1)C(=O)OC (stereo partly specified)
inactive: A549 > 100 µM | COLO 205 > 100 µM | DU-145 > 100 µM | HCT-116 > 100 µM | HL-60 > 100 µM | HOP-62 > 100 µM | HOP-92 > 100 µM | IGROV-1 > 100 µM | M14 > 100 µM | MOLT-4 > 100 µM | OVCAR-5 > 100 µM | OVCAR-8 > 100 µM | RPMI-8226 > 100 µM | SK-MEL-28 > 100 µM | SK-MEL-5 > 100 µM | TK-10 > 100 µM | UACC-257 > 100 µM | UACC-62 > 100 µM

NC(C(=O)OC(=O)c1ccccc1)C(=O)OC(=O)c1ccccc1
inactive: A549 > 100 µM | COLO 205 > 100 µM | DU-145 > 100 µM | HCT-116 > 100 µM | HOP-62 > 100 µM | M14 > 100 µM | MOLT-4 > 100 µM | OVCAR-5 > 100 µM | OVCAR-8 > 100 µM | RPMI-8226 > 100 µM | SF-268 > 100 µM | SK-MEL-28 > 100 µM | SK-MEL-5 > 100 µM | T47D > 100 µM | TK-10 > 100 µM | UACC-257 > 100 µM

CS(=O)(=O)c1nc(-c2cc3c(c(S(C)(=O)=O)n2)CCC3)cc2c1CCC2
inactive: A549 > 100 µM | COLO 205 > 100 µM | DU-145 > 100 µM | HCT-116 > 100 µM | HL-60 > 100 µM | HOP-62 > 100 µM | IGROV-1 44.3 µM | M14 > 100 µM | MOLT-4 > 100 µM | OVCAR-5 > 100 µM | OVCAR-8 74.5 µM | RPMI-8226 > 100 µM | SF-268 44.3 µM | SK-MEL-28 > 100 µM | SK-MEL-5 > 100 µM | TK-10 > 100 µM | UACC-257 > 100 µM | UACC-62 > 100 µM

From ChEMBL document CHEMBL1201862, “PubChem BioAssay data set” (2004)
